This experiment has as its target T1, human mAChR M4 (Homo sapiens, UniProt P08173).
T1 construct: expressed in transfected cells; host or cells: CHO-K1 (ATCC), stably co-expressing chimeric G protein Gqi5
T1 sequence (P08173 1-479): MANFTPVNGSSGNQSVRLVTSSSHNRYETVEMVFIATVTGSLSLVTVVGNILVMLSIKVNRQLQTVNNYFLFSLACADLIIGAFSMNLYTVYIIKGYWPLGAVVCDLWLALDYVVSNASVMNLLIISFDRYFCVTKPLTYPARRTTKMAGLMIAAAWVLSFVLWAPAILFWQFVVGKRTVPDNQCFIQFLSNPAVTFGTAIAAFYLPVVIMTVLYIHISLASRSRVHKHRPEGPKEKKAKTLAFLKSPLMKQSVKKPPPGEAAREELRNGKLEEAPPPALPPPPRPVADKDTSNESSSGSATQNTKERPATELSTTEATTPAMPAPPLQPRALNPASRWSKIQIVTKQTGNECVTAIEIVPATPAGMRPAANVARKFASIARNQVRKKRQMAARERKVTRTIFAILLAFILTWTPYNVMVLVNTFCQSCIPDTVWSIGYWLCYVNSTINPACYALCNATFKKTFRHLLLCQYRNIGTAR
The experiment is described as follows: mAChR M4 cell-based functional assay (calcium mobilization, EC80 acetylcholine), human M4. The following applies: for IC50: M4/Gqi5/CHO-K1 cells, decrease of EC80 acetylcholine response; for Emin: human M4, % ACh maximum at 30 μM. The procedure: Human or rat M4 cDNA, along with the chimeric G protein Gqi5, were transfected into Chinese hamster ovary (CHO-K1) cells purchased from the American Type Culture Collection using Lipofectamine2000. M4/Gqi5/CHO cells were grown in Ham's F-12 medium containing 10% heat-inactivated fetal bovine serum (FBS), 20 mM HEPES, 500 μg/mL G418 sulfate, and 200 μg/mL Hygromycin B.
For high throughput measurement of agonist-evoked increases in intracellular calcium, CHO-K1 cells stably expressing muscarinic receptors were plated in growth medium lacking G418 and hygromycin at 15,000 cells/20 μL/well in Greiner 384-well black-walled, tissue culture (TC)-treated, clear-bottom plates (VWR). Cells were incubated overnight at 37° C. and 5% CO2. […] Compound master plates were formatted in a 10 point concentration-response curve (CRC) format (1:3 dilutions) in 100% DMSO with a starting concentration of 10 or 1 mM using a BRAVO liquid handler (Agilent). Test compound CRCs were then transferred to daughter plates (240 nL) using the Echo acoustic plate reformatter (Labcyte, Sunnyvale, CA) and then diluted into assay buffer (40 μL) to a 2× stock using a Thermo Fisher Combi (Thermo Fisher Scientific, Waltham, MA).
Calcium flux was measured using the Functional Drug Screening System (FDSS) 6000 or 7000 (Hamamatsu Corporation, Tokyo, Japan) as an increase in the fluorescent static ratio. Compounds were applied to cells (20 μL, 2×) using the automated system of the FDSS at 2 seconds into the protocol and the data were collected at 1 Hz. […] Agonist activity was analyzed as a concentration-dependent increase in calcium mobilization upon compound addition. Positive allosteric modulator activity was analyzed as a concentration-dependent increase in the EC20 acetylcholine response. Antagonist activity was analyzed as a concentration-dependent decrease in the EC80 acetylcholine response; for the purposes of the tables herein, an IC50 (inhibitory concentration 50) was calculated as a concentration-dependent decrease of the response elicited by an EC80 concentration of acetylcholine. Concentration-response curves were generated using a four-parameter logistical equation in XLFit curve fitting software (IDBS, Bridgewater, NJ) for Excel (Microsoft, Redmond, WA) or Prism (GraphPad Software, Inc., San Diego, CA) or the Dotmatics software platform (Dotmatics, Bishop's Stortford, UK).
For orientation: A change in cytosolic calcium serves as a functional read-out for many receptors and channels.

Experimental findings from US12577234B2, “Antagonists of the muscarinic acetylcholine receptor M4” (Vanderbilt University, priority 2017, dated 2026) are described below.

`Cc1nn(C)cc1-c1cnc(N[C@H]2C[C@@H]3CN(CC45CC6CC(CC(C6)C4)C5)C[C@@H]3C2)cn1` [Compound 155, (3aR,5s6aS)-2-(1-adamantylmethyl)-N-[5-(1,3-dimethylpyrazol-4-yl)pyrazin-2-yl]-3,3a,4,5,6,6a-hexahydro-1H-cyclopenta[c]pyrrol-5-amine]: where the note is “Table 10”, the “Human M4 Emin” value is listed as 4% and the IC50 (commonly the concentration that inhibits the measured activity by half) amounted to 15.9 nM. Take `Cc1cnn(C)c1-c1ccc(N[C@H]2C[C@@H]3CN(CCC(C)(C)C)C[C@@H]3C2)nn1` [Compound 1, (3aR,5s,6aS)-2-(3,3-Dimethylbutyl)-N-[6-(2,4-dimethylpyrazol-3-yl)pyridazin-3-yl]-3,3a,4,5,6,6a-hexahydro-1H-cyclopenta[c]pyrrol-5-amine]: where the note is “Table 9”, the half-maximal inhibitory concentration (IC50) came to 8 nM and the Emin was determined as 13.1%. Consider `COc1ccccc1-c1ccc(N[C@H]2C[C@@H]3CN(CC4CCOCC4)C[C@@H]3C2)nn1` [Compound 199, (3aR,5s,6aS)-N-[6-(2-methoxyphenyl)pyridazin-3-yl]-2-(tetrahydropyran-4-ylmethyl)-3,3a,4,5,6,6a-hexahydro-1H-cyclopenta[c]pyrrol-5-amine], for which, under “Table 10”, the “Human M4 Emin” value turned out to be 5% and the concentration for half-maximal inhibition (IC50) was determined as 0.579 nM. Turning to `Fc1ccc(Cl)c(-c2ccc(OCC3C[C@@H]4CN(CC5CCCCC5)C[C@@H]4C3)nn2)c1` (stereo partly drawn) [Compound 111, (3aR,6aS)-5-[[6-(2-chloro-5-fluoro-phenyl)pyridazin-3-yl]oxymethyl]-2-(cyclohexylmethyl)-3,3a,4,5,6,6a-hexahydro-1H-cyclopenta[c]pyrrole], under “Table 9”, the IC50 was 443 nM and the Emin worked out at 3.62%. On the same counts, the results for `Cc1nn(C)cc1-c1ccc(N[C@H]2C[C@@H]3CN(Cc4ccccc4)C[C@@H]3C2)nn1` [Compound 8, (3aR,5s,6aS)-2-benzyl-N-[6-(1,3-dimethylpyrazol-4-yl)pyridazin-3-yl]-3,3a,4,5,6,6a-hexahydro-1H-cyclopenta[c]pyrrol-5-amine] are 10 nM and 3.22%. Turning to `FC1(F)CCN(c2ccc(N[C@H]3C[C@@H]4CN(CC5CCOCC5)C[C@@H]4C3)nn2)C1` [Compound 189, (3aR,5s,6aS)-N-[6-(3,3-difluoropyrrolidin-1-yl)pyridazin-3-yl]-2-(tetrahydropyran-4-ylmethyl)-3,3a,4,5,6,6a-hexahydro-1H-cyclopenta[c]pyrrol-5-amine], under “Table 10”, the “Human M4 Emin” value is 8% and the IC50 amounted to 2.07 nM. Turning to `Cc1noc(C)c1-c1ccc(N[C@H]2C[C@@H]3CN(CCC(C)(C)C)C[C@@H]3C2)nn1` [Compound 142, (3aR,5s,6aS)-2-(3,3-dimethylbutyl)-N-[6-(3,5-dimethylisoxazol-4-yl)pyridazin-3-yl]-3,3a,4,5,6,6a-hexahydro-1H-cyclopenta[c]pyrrol-5-amine], under “Table 10”, the “Human M4 Emin” value turned out to be 6% and the 50% inhibitory concentration (IC50) was found to be 1.82 nM. For the compound `Cc1cnn(C)c1-c1ccc(NC[C@H]2C[C@@H]3CN(CCC(C)(C)C)C[C@@H]3C2)nn1` [Compound 61, N-[[(3aR,5s,6aS)-2-(3,3-Dimethylbutyl)-3,3a,4,5,6,6a-hexahydro-1H-cyclopenta[c]pyrrol-5-yl]methyl]-6-(2,4-dimethylpyrazol-3-yl)pyridazin-3-amine], for the setting “Table 9”, the IC50 was found to be 35.6 nM and the Emin was determined as 3.12%. On to `Cc1nn(C)cc1-c1ccc(N[C@H]2C[C@@H]3CN(Cc4ccccc4F)C[C@@H]3C2)nn1` [compound 10], for which, where the note is “Table 9”, the IC50 was 41 nM. Take `Fc1ccc(-c2ccc(N[C@H]3C[C@@H]4CN(CC5CCOCC5)C[C@@H]4C3)nn2)cc1` [Compound 187, (3aR,5s,6aS)-N-[6-(4-fluorophenyl)pyridazin-3-yl]-2-(tetrahydropyran-4-ylmethyl)-3,3a,4,5,6,6a-hexahydro-1H-cyclopenta[c]pyrrol-5-amine]: where the note is “Table 10”, the “Human M4 Emin” value amounted to 4% and the half-maximal inhibitory concentration (IC50) came out at 4.6 nM. Regarding `COc1cccc(-c2ccc(N[C@H]3C[C@@H]4CN(CC5CCOCC5)C[C@@H]4C3)nn2)c1` [Compound 200, (3aR,5s,6aS)-N-[6-(3-methoxyphenyl)pyridazin-3-yl]-2-(tetrahydropyran-4-ylmethyl)-3,3a,4,5,6,6a-hexahydro-1H-cyclopenta[c]pyrrol-5-amine], for the setting “Table 10”, the “Human M4 Emin” value is 6% and the concentration for half-maximal inhibition (IC50) was 4 nM. Regarding `CCCC(C)CN1C[C@H]2C[C@H](Nc3ccc(-c4cn(C)nc4C)nn3)C[C@H]2C1` (stereo partly drawn) [compound 14], the IC50 (Table 9) worked out at 4.8 nM. Consider `Cc1nn(C)cc1-c1ccc(OCC2C[C@@H]3CN(CC4CCCCC4)C[C@@H]3C2)nn1` (stereo partly drawn) [Compound 97, (3aR,6aS)-2-(cyclohexylmethyl)-5-[[6-(1,3-dimethylpyrazol-4-yl)pyridazin-3-yl]oxymethyl]-3,3a,4,5,6,6a-hexahydro-1H-cyclopenta[c]pyrrole], for which, under “Table 9”, the IC50 was 167 nM and the Emin was 4.44%.

For the compound `Cc1cccnc1CN1C[C@H]2C[C@H](CNc3ccc(-c4c(C)cnn4C)nn3)C[C@H]2C1` [Compound 68, N-[[(3aR,5s,6aS)-2-[(3-methyl-2-pyridyl)methyl]-3,3a,4,5,6,6a-hexahydro-1H-cyclopenta[c]pyrrol-5-yl]methyl]-6-(2,4-dimethylpyrazol-3-yl)pyridazin-3-amine], under “Table 9”, the IC50 stood at 618 nM and the Emin was found to be 6.26%.

In the case of `Fc1ccc(Cl)c(-c2ccc(N[C@H]3C[C@@H]4CN(CC56CC7CC(CC(C7)C5)C6)C[C@@H]4C3)nn2)c1` [Compound 26, (3aR,5s,6aS)-2-(1-adamantylmethyl)-N-[6-(2-chloro-5-fluoro-phenyl)pyridazin-3-yl]-3,3a,4,5,6,6a-hexahydro-1H-cyclopenta[c]pyrrol-5-amine], where the note is “Table 9”, the IC50 was 128 nM and the Emin amounted to 3.20%. For the compound `Cc1nn(C)cc1-c1ccc(OCC2C[C@@H]3CN(Cc4ccccn4)C[C@@H]3C2)nn1` (stereo partly drawn) [Compound 103, (3aR,6aS)-5-[[6-(1,3-dimethylpyrazol-4-yl)pyridazin-3-yl]oxymethyl]-2-(2-pyridylmethyl)-3,3a,4,5,6,6a-hexahydro-1H-cyclopenta[c]pyrrole], where the note is “Table 9”, the IC50 amounted to 9870 nM and the Emin came to 14.7%.

For the compound `CCC(C)CN1C[C@H]2CC(COc3ccc(-c4cc(F)ccc4Cl)nn3)C[C@H]2C1` (stereo partly drawn) [Compound 109, (3aR,6aS)-5-[[6-(2-chloro-5-fluoro-phenyl)pyridazin-3-yl]oxymethyl]-2-(2-methylbutyl)-3,3a,4,5,6,6a-hexahydro-1H-cyclopenta[c]pyrrole], where the note is “Table 9”, the half-inhibitory concentration (IC50) was found to be 583 nM and the Emin came out at 4.62%. As to `Cc1nn(C)cc1-c1ccc(OCC2C[C@@H]3CN(CC4CCOCC4)C[C@@H]3C2)nn1` (stereo partly drawn) [Compound 98, (3aR,6aS)-5-[[6-(1,3-dimethylpyrazol-4-yl)pyridazin-3-yl]oxymethyl]-2-(tetrahydropyran-4-ylmethyl)-3,3a,4,5,6,6a-hexahydro-1H-cyclopenta[c]pyrrole], for the setting “Table 9”, the half-inhibitory concentration (IC50) was determined as 2230 nM and the Emin is given as 8.70%.

Take `COc1ccc(F)cc1-c1ccc(N[C@H]2C[C@@H]3CN(CC4CCOCC4)C[C@@H]3C2)nn1` [Compound 212, (3aR,5s,6aS)-N-[6-(5-fluoro-2-methoxy-phenyl)pyridazin-3-yl]-2-(tetrahydropyran-4-ylmethyl)-3,3a,4,5,6,6a-hexahydro-1H-cyclopenta[c]pyrrol-5-amine]: where the note is “Table 10”, the “Human M4 Emin” value is 5% and the IC50 is 0.486 nM.
